Experiments:
[1] = biological target: Disintegrin and metalloproteinase domain-containing protein 17 (Sus scrofa, UniProt O77636); assay: Inhibition of porcine TACE
[2] = biological target: 72 kDa type IV collagenase (Homo sapiens, UniProt P08253); assay: Inhibition of MMP2
Stromelysin-1 = Stromelysin-1 (Homo sapiens, UniProt P08254); assay: Inhibition of MMP3
Matrilysin = biological target: T1, Matrilysin (Homo sapiens, UniProt P09237); assay: Inhibition of MMP7
T1 sequence (P09237 whole entry): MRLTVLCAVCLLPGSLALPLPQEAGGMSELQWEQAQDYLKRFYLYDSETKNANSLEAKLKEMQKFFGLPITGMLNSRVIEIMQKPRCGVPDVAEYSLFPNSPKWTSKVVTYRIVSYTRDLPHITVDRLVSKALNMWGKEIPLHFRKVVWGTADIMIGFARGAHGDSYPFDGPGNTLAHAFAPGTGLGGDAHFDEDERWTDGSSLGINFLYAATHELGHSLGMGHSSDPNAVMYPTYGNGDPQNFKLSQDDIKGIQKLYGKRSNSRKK

[3] = biological target: Macrophage metalloelastase (Homo sapiens, UniProt P39900); assay: Inhibition of MMP12
Collagenase 3 = Collagenase 3 (Homo sapiens, UniProt P45452); assay: Inhibition of MMP13

Sequence of Macrophage metalloelastase (P39900 whole entry): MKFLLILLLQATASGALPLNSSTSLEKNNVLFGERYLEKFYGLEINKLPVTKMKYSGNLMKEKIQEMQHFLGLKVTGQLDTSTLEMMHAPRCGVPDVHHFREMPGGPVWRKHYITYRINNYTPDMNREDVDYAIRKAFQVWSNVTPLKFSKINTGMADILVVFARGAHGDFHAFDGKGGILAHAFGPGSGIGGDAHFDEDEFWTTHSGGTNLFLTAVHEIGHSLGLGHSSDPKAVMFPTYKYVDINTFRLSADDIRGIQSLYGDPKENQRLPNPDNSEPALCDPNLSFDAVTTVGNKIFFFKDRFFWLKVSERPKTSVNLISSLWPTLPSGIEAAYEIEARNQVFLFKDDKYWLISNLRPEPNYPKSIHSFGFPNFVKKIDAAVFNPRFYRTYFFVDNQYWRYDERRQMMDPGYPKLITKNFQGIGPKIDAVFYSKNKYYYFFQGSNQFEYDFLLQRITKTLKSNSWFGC
Sequence of Stromelysin-1 (P08254 whole entry): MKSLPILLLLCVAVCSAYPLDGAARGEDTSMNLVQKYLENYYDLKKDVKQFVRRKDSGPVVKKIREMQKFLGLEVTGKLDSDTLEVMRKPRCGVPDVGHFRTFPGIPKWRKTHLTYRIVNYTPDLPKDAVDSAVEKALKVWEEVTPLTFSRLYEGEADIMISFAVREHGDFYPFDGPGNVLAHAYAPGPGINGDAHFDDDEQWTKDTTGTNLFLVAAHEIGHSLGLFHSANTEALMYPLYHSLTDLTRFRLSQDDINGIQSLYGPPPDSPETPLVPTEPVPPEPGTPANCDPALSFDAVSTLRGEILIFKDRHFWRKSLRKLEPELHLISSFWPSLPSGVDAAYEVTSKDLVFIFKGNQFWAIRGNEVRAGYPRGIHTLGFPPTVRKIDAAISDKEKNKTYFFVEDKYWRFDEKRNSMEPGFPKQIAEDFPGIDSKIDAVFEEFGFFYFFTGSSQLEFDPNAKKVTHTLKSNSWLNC
Sequence of 72 kDa type IV collagenase (P08253 whole entry): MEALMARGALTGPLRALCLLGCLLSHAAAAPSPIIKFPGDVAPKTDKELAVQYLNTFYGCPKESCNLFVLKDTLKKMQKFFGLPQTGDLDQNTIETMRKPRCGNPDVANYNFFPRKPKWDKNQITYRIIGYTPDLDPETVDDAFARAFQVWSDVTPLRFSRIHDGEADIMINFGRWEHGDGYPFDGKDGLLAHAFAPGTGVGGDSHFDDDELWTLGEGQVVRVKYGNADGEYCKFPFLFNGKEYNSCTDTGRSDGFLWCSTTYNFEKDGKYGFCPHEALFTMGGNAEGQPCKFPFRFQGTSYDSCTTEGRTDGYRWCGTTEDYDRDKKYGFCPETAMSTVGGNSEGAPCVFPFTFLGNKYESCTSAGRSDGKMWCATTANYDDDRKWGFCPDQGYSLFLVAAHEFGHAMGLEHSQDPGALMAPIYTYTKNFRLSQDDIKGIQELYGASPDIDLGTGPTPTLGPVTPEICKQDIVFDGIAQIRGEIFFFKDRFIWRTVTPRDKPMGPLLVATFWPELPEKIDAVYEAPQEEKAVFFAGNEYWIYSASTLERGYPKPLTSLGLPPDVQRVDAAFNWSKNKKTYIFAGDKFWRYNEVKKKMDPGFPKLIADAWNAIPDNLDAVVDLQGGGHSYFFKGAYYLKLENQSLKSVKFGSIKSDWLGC
Sequence of Disintegrin and metalloproteinase domain-containing protein 17 (O77636 whole entry, the tested form may be a part): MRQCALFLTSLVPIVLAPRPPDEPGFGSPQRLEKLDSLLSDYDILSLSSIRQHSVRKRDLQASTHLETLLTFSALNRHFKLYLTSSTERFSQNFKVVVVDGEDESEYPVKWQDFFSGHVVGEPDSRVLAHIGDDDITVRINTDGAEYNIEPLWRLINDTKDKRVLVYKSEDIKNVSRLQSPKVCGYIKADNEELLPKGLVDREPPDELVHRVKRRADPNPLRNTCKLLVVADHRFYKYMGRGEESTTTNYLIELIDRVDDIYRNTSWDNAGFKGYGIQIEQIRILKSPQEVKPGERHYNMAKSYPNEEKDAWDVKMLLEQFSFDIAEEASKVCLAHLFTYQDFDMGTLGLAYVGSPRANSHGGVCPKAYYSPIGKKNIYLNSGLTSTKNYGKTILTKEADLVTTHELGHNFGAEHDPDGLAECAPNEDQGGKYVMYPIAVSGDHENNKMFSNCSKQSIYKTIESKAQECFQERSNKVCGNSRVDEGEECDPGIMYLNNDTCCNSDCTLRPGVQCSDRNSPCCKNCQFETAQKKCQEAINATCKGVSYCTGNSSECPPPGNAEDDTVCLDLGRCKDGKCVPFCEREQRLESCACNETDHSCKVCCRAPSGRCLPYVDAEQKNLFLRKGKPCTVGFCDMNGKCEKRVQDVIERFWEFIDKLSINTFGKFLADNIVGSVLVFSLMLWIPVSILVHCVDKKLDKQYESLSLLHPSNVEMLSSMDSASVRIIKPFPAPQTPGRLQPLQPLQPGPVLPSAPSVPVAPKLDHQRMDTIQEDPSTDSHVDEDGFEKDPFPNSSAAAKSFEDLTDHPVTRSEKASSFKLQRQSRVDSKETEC

Compound `Cc1cc(COc2ccc(C(=O)NC3(Cc4n[nH]c(=S)[nH]4)CCOCC3)cc2)c2ccccc2n1` has an IC50 [1] of 0.024 µM, a Ki [2] of 1.6 µM and a Ki (Stromelysin-1) of 2.1 µM. For the same compound, the Ki (Matrilysin) was 0.635 µM, the Ki [3] was 0.223 µM and the Ki (Collagenase 3) was 0.753 µM.
Work on `Cc1cc(COc2ccc([C@]3(N)CCN([C@H](CC(C)C)c4n[nH]c(=S)[nH]4)C3=O)cc2)c2ccccc2n1` yielded an IC50 [1] of over 1 µM, a Ki [2] of over 3.33 µM and a Ki (Stromelysin-1) of over 4.5 µM. It also gave a Ki (Matrilysin) of over 6.37 µM, a Ki [3] of over 6.02 µM and a Ki (Collagenase 3) of over 5.03 µM.
With `Cc1cc(COc2ccc(C(=O)NCCc3n[nH]c(=S)[nH]3)cc2)c2ccccc2n1` the IC50 [1] was 0.21 µM, the Ki [2] was over 3.33 µM and the Ki (Stromelysin-1) was over 4.5 µM. It also gave a Ki (Matrilysin) of over 6.37 µM, a Ki [3] of over 6.02 µM and a Ki (Collagenase 3) of over 5.03 µM.
Work on `O=C(NCCCc1n[nH]c(=S)[nH]1)c1ccc(OCc2ccnc3ccccc23)cc1` yielded an IC50 [1] of 0.294 µM, a Ki [2] of over 3.33 µM and a Ki (Stromelysin-1) of over 4.5 µM. It also gave a Ki (Matrilysin) of over 6.37 µM, a Ki [3] of over 6.02 µM and a Ki (Collagenase 3) of over 5.03 µM.
`Cc1cc(COc2ccc(C(=O)NC(C)(C)Cc3n[nH]c(=S)[nH]3)cc2)c2ccccc2n1` gave an IC50 [1] of 0.055 µM, a Ki [2] of over 3.33 µM and a Ki (Stromelysin-1) of over 4.5 µM. It also gave a Ki (Matrilysin) of over 6.37 µM, a Ki [3] of over 6.02 µM and a Ki (Collagenase 3) of over 5.03 µM.
Work on `Cc1cc(COc2ccc(C(=O)NCc3n[nH]c(=S)[nH]3)cc2)c2ccccc2n1` yielded an IC50 [1] of over 1 µM, a Ki [2] of over 3.33 µM and a Ki (Stromelysin-1) of over 4.5 µM. It also gave a Ki (Matrilysin) of over 6.37 µM, a Ki [3] of over 6.02 µM and a Ki (Collagenase 3) of over 5.03 µM.
In the case of `Cc1cc(COc2ccc(C(=O)NC3(Cc4n[nH]c(=S)[nH]4)CCN(C(=O)OC(C)(C)C)CC3)cc2)c2ccccc2n1`, the IC50 [1] is reported as 0.036 µM, the Ki [2] is reported as over 3.33 µM and the Ki (Stromelysin-1) is reported as over 4.5 µM. It also gave a Ki (Matrilysin) of over 6.37 µM, a Ki [3] of over 6.02 µM and a Ki (Collagenase 3) of over 5.03 µM.
For `Cc1cc(COc2ccc(C(=O)N[C@@H]3CN(C(=O)OC(C)(C)C)C[C@@H]3c3n[nH]c(=S)[nH]3)cc2)c2ccccc2n1` (relative stereo), the IC50 [1] was 0.014 µM, the Ki [2] was over 3.33 µM and the Ki (Stromelysin-1) was over 4.5 µM. For the same compound, the Ki (Matrilysin) was over 6.37 µM, the Ki [3] was 3.56 µM and the Ki (Collagenase 3) was over 5.03 µM.
Compound `CC(=O)N1C[C@H](c2n[nH]c(=S)[nH]2)[C@H](NC(=O)c2ccc(OCc3cc(C)nc4ccccc34)cc2)C1` (relative stereo) has an IC50 [1] of 0.0015 µM, a Ki [2] of over 3.33 µM and a Ki (Stromelysin-1) of over 4.5 µM. The Ki (Matrilysin) was over 6.37 µM, the Ki [3] was over 6.02 µM and the Ki (Collagenase 3) was over 5.03 µM.
Compound `Cc1cc(COc2ccc(C(=O)N[C@@H]3CCOC[C@@H]3c3n[nH]c(=S)[nH]3)cc2)c2ccccc2n1` (relative stereo) has an IC50 [1] of 0.0081 µM, a Ki [2] of over 3.33 µM and a Ki (Stromelysin-1) of over 4.5 µM. The Ki (Matrilysin) was over 6.37 µM, the Ki [3] was over 6.02 µM and the Ki (Collagenase 3) was over 5.03 µM.
With `Cc1cc(COc2ccc(C(=O)N[C@@H]3CCNC[C@@H]3c3n[nH]c(=S)[nH]3)cc2)c2ccccc2n1` (relative stereo) the IC50 [1] was 0.043 µM, the Ki [2] was over 3.33 µM and the Ki (Stromelysin-1) was over 4.5 µM. It also gave a Ki (Matrilysin) of over 6.37 µM, a Ki [3] of over 6.02 µM and a Ki (Collagenase 3) of over 5.03 µM.
With `Cc1cc(COc2ccc(C(=O)N[C@@H]3CN(C(=O)OC(C)(C)C)CC[C@@H]3c3n[nH]c(=S)[nH]3)cc2)c2ccccc2n1` (relative stereo) the IC50 [1] was 0.075 µM, the Ki [2] was over 3.33 µM and the Ki (Stromelysin-1) was over 4.5 µM. The Ki (Matrilysin) was over 6.37 µM, the Ki [3] was over 6.02 µM and the Ki (Collagenase 3) was over 5.03 µM.
Work on `CC(=O)N1CC[C@H](c2n[nH]c(=S)[nH]2)[C@H](NC(=O)c2ccc(OCc3cc(C)nc4ccccc34)cc2)C1` (relative stereo) yielded an IC50 [1] of 0.0025 µM, a Ki [2] of over 3.33 µM and a Ki (Stromelysin-1) of over 4.5 µM. The Ki (Matrilysin) was over 6.37 µM, the Ki [3] was over 6.02 µM and the Ki (Collagenase 3) was 3.14 µM.
For `CCCN1CC[C@H](c2n[nH]c(=S)[nH]2)[C@H](NC(=O)c2ccc(OCc3cc(C)nc4ccccc34)cc2)C1` (relative stereo), the IC50 [1] was 0.015 µM, the Ki [2] was over 3.33 µM and the Ki (Stromelysin-1) was over 4.5 µM. It also gave a Ki (Matrilysin) of over 6.37 µM, a Ki [3] of over 6.02 µM and a Ki (Collagenase 3) of over 5.03 µM.
For `Cc1cc(COc2ccc(C(=O)N[C@@H]3CN(S(C)(=O)=O)CC[C@@H]3c3n[nH]c(=S)[nH]3)cc2)c2ccccc2n1` (relative stereo), the IC50 [1] was 0.028 µM, the Ki [2] was over 3.33 µM and the Ki (Stromelysin-1) was over 4.5 µM. The Ki (Matrilysin) was over 6.37 µM, the Ki [3] was over 6.02 µM and the Ki (Collagenase 3) was over 5.03 µM.
Work on `Cc1cc(COc2ccc(C(=O)N[C@@H]3CN(C(C)C)CC[C@@H]3c3n[nH]c(=S)[nH]3)cc2)c2ccccc2n1` (relative stereo) yielded an IC50 [1] of 0.031 µM, a Ki [2] of over 3.33 µM and a Ki (Stromelysin-1) of over 4.5 µM. The Ki (Matrilysin) was over 6.37 µM, the Ki [3] was over 6.02 µM and the Ki (Collagenase 3) was over 5.03 µM.
`C#CCN1CC[C@H](c2n[nH]c(=S)[nH]2)[C@H](NC(=O)c2ccc(OCc3cc(C)nc4ccccc34)cc2)C1` (relative stereo) showed an IC50 [1] of 0.073 µM, a Ki [2] of over 3.33 µM and a Ki (Stromelysin-1) of over 4.5 µM. For the same compound, the Ki (Matrilysin) was over 6.37 µM, the Ki [3] was over 6.02 µM and the Ki (Collagenase 3) was over 5.03 µM.
In the case of `Cc1cc(COc2ccc(C(=O)N[C@@H]3CNCC[C@@H]3c3n[nH]c(=S)[nH]3)cc2)c2ccccc2n1` (relative stereo), the IC50 [1] is reported as 0.0094 µM, the Ki [2] is reported as over 3.33 µM and the Ki (Stromelysin-1) is reported as over 4.5 µM. The Ki (Matrilysin) was over 6.37 µM, the Ki [3] was over 6.02 µM and the Ki (Collagenase 3) was over 5.03 µM.
For `Cc1cc(COc2ccc(C(=O)N[C@@H]3CN(C)CC[C@@H]3c3n[nH]c(=S)[nH]3)cc2)c2ccccc2n1` (relative stereo), the IC50 [1] was 0.016 µM, the Ki [2] was over 3.33 µM and the Ki (Stromelysin-1) was over 4.5 µM. It also gave a Ki (Matrilysin) of 5.37 µM, a Ki [3] of 0.958 µM and a Ki (Collagenase 3) of over 5.03 µM.
`Cc1cc(COc2ccc(C(=O)N[C@@H]3CCC[C@@H]3c3n[nH]c(=S)[nH]3)cc2)c2ccccc2n1` (relative stereo) was tested, and the IC50 [1] was 0.041 µM, the Ki [2] was over 3.33 µM and the Ki (Stromelysin-1) was over 4.5 µM. The Ki (Matrilysin) was over 6.37 µM, the Ki [3] was over 6.02 µM and the Ki (Collagenase 3) was over 5.03 µM.
With `Cc1cc(COc2ccc(C(=O)N[C@@H]3CNC[C@@H]3c3n[nH]c(=S)[nH]3)cc2)c2ccccc2n1` (relative stereo) the IC50 [1] was 0.092 µM, the Ki [2] was over 3.33 µM and the Ki (Stromelysin-1) was over 4.5 µM. For the same compound, the Ki (Matrilysin) was over 6.37 µM, the Ki [3] was over 6.02 µM and the Ki (Collagenase 3) was over 5.03 µM.
Compound `CCCN1C[C@H](c2n[nH]c(=S)[nH]2)[C@H](NC(=O)c2ccc(OCc3cc(C)nc4ccccc34)cc2)C1` (relative stereo) has an IC50 [1] of 0.0099 µM, a Ki [2] of over 3.33 µM and a Ki (Stromelysin-1) of over 4.5 µM. It also gave a Ki (Matrilysin) of over 6.37 µM, a Ki [3] of over 6.02 µM and a Ki (Collagenase 3) of 2.46 µM.
